test system: P. falciparum K1 (strain resistant to chloroquine and pyrimethamine), erythrocytic stages; experiment: Plasmodium falciparum in vitro assay, [3H] hypoxanthine incorporation; type: cell-based; conditions: Plasmodium falciparum, K1, P. falciparum strain K1; [3H] hypoxanthine incorporation; read-out: IC50 (nM) on K1
Method in brief: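 Chloroquine/pyrimethamine-resistant K1 erythrocytic cultures (2.5% haematocrit, 0.3% parasitaemia, hypoxanthine-free RPMI with Albumax) exposed to seven doubling dilutions at 37 °C under low O2.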

IC50 [nM]	Compound
39	CC(=O)N1CCN(c2ccc(CN(C(=O)C=Cc3ccc(C(F)(F)F)cc3)[C@@H](Cc3ccccc3)C(=O)N(C)CCN(C)Cc3ccc4c(c3)OCO4)cc2)CC1 [Example 249, (S)-N-[4-(4-Acetyl-piperazin-1-yl)-benzyl]-N-(1-{[2-(benzo[1,3]dioxol-5-ylmethyl-methyl-amino)-ethyl]-methyl-carbamoyl}-2-phenyl-ethyl)-3-(4-trifluoromethyl-phenyl)-acrylamide]
27	CC(=O)N1CCN(c2ccc(CN(C(=O)C=Cc3ccc(C(F)(F)F)cc3)[C@@H](Cc3ccccc3)C(=O)N(C)CCN(C)Cc3cncnc3)cc2)CC1 [Example 250, (S)-N-[4-(4-Acetyl-piperazin-1-yl)-benzyl]-N-(1-{methyl-[2-(methyl-pyrimidin-5-ylmethyl-amino)-ethyl]-carbamoyl}-2-phenyl-ethyl)-3-(4-trifluoromethyl-phenyl)-acrylamide]
53	CC(=O)N1CCN(c2ccc(CN(C(=O)C=Cc3ccc(C(F)(F)F)cc3)[C@@H](Cc3ccccc3)C(=O)N(C)CCN(C)Cc3ccc(C)c(F)c3F)cc2)CC1 [Example 251, (S)-N-[4-(4-Acetyl-piperazin-1-yl)-benzyl]-N-[1-({2-[(2,3-difluoro-4-methyl-benzyl)-methyl-amino]-ethyl}-methyl-carbamoyl)-2-phenyl-ethyl]-3-(4-trifluoromethyl-phenyl)-acrylamide]
80	CC(=O)N1CCN(c2ccc(CN(C(=O)C=Cc3ccc(C(F)(F)F)cc3)[C@@H](Cc3ccccc3)C(=O)N(C)CCN(C)Cc3cnc[nH]3)cc2)CC1 [Example 252, (S)-N-[4-(4-Acetyl-piperazin-1-yl)-benzyl]-N-[1-({2-[(3H-imidazol-4-ylmethyl)-methyl-amino]-ethyl}-methyl-carbamoyl)-2-phenyl-ethyl]-3-(4-trifluoromethyl-phenyl)-acrylamide]
19	CC(=O)N1CCN(c2ccc(CN(C(=O)C=Cc3ccc(C(F)(F)F)cc3)[C@@H](Cc3ccccc3)C(=O)N(C)CCN(C)Cc3ccncc3)cc2)CC1 [Example 253, (S)-N-[4-(4-Acetyl-piperazin-1-yl)-benzyl]-N-(1-{methyl-[2-(methyl-pyridin-4-ylmethyl-amino)-ethyl]-carbamoyl}-2-phenyl-ethyl)-3-(4-trifluoromethyl-phenyl)-acrylamide]
76	CC(=O)N1CCN(c2ccc(CN(C(=O)C=Cc3ccc(C(F)(F)F)cc3)[C@@H](Cc3ccccc3)C(=O)N(C)CCN(C)Cc3ccccc3)cc2)CC1 [Example 254, (S)-N-[4-(4-Acetyl-piperazin-1-yl)-benzyl]-N-(1-{[2-(benzyl-methyl-amino)-ethyl]-methyl-carbamoyl}-2-phenyl-ethyl)-3-(4-trifluoromethyl-phenyl)-acrylamide]
59	CN(CCN(C)C(=O)[C@H](Cc1ccccc1)N(Cc1ccc(N2CCOCC2)cc1)C(=O)C=Cc1ccc(C(F)(F)F)cc1)Cc1ccc(N(C)CCO)cc1 [Example 255, (S)-N-(1-{[2-({4-[(2-Hydroxy-ethyl)-methyl-amino]-benzyl}-methyl-amino)-ethyl]-methyl-carbamoyl}-2-phenyl-ethyl)-N-(4-morpholin-4-yl-benzyl)-3-(4-trifluoromethyl-phenyl)-acrylamide]
39	CN(CCN(C)C(=O)[C@H](Cc1ccccc1)N(Cc1ccc(N2CCOCC2)cc1)C(=O)C=Cc1ccc(C(F)(F)F)cc1)Cc1ccc(O)cc1 [Example 256, (S)-N-[1-({2-[(4-Hydroxy-benzyl)-methyl-amino]-ethyl}-methyl-carbamoyl)-2-phenyl-ethyl]-N-(4-morpholin-4-yl-benzyl)-3-(4-trifluoromethyl-phenyl)-acrylamide]
65	CCN(CC)c1ccc(CN(C)CCN(C)C(=O)[C@H](Cc2ccccc2)N(Cc2ccc(N3CCOCC3)cc2)C(=O)C=Cc2ccc(C(F)(F)F)cc2)cc1 [Example 257, (S)-N-[1-({2-[(4-Diethylamino-benzyl)-methyl-amino]-ethyl}-methyl-carbamoyl)-2-phenyl-ethyl]-N-(4-morpholin-4-yl-benzyl)-3-(4-trifluoromethyl-phenyl)-acrylamide]
43	CN(CCN(C)C(=O)[C@H](Cc1ccccc1)N(Cc1ccc(N2CCOCC2)cc1)C(=O)C=Cc1ccc(C(F)(F)F)cc1)Cc1cccc(O)c1 [Example 258, (S)-N-[1-({2-[(3-Hydroxy-benzyl)-methyl-amino]-ethyl}-methyl-carbamoyl)-2-phenyl-ethyl]-N-(4-morpholin-4-yl-benzyl)-3-(4-trifluoromethyl-phenyl)-acrylamide]
32	CN(CCN(C)C(=O)[C@H](Cc1ccccc1)N(Cc1ccc(N2CCOCC2)cc1)C(=O)C=Cc1ccc(C(F)(F)F)cc1)Cc1cccnc1 [Example 259, (S)-N-(1-{Methyl-[2-(methyl-pyridin-3-ylmethyl-amino)-ethyl]-carbamoyl}-2-phenyl-ethyl)-N-(4-morpholin-4-yl-benzyl)-3-(4-trifluoromethyl-phenyl)-acrylamide]
14	CN(CCN(C)C(=O)[C@H](Cc1ccccc1)N(Cc1ccc(N2CCOCC2)cc1)C(=O)C=Cc1ccc(C(F)(F)F)cc1)Cc1cccc(OCCO)c1 [Example 260, (S)-N-{1-[(2-{[3-(2-Hydroxy-ethoxy)-benzyl]-methyl-amino}-ethyl)-methyl-carbamoyl]-2-phenyl-ethyl}-N-(4-morpholin-4-yl-benzyl)-3-(4-trifluoromethyl-phenyl)-acrylamide]
48	CN(CCN(C)C(=O)[C@H](Cc1ccccc1)N(Cc1ccc(N2CCOCC2)cc1)C(=O)C=Cc1ccc(C(F)(F)F)cc1)Cc1cccc(C#N)c1 [Example 261, (S)-N-[1-({2-[(3-Cyano-benzyl)-methyl-amino]-ethyl}-methyl-carbamoyl)-2-phenyl-ethyl]-N-(4-morpholin-4-yl-benzyl)-3-(4-trifluoromethyl-phenyl)-acrylamide]
17	CC(C)Oc1ccc(CN(C)CCN(C)C(=O)[C@H](Cc2ccccc2)N(Cc2ccc(N3CCOCC3)cc2)C(=O)C=Cc2ccc(C(F)(F)F)cc2)cc1 [Example 262, (S)-N-[1-({2-[(4-Isopropoxy-benzyl)-methyl-amino]-ethyl}-methyl-carbamoyl)-2-phenyl-ethyl]-N-(4-morpholin-4-yl-benzyl)-3-(4-trifluoromethyl-phenyl)-acrylamide]
72	CN(CCN(C)C(=O)[C@H](Cc1ccccc1)N(Cc1ccc(N2CCOCC2)cc1)C(=O)C=Cc1ccc(C(F)(F)F)cc1)Cc1ccc2c(c1)OCCN2C [Example 263, (S)-N-[1-(Methyl-{2-[methyl-(4-methyl-3,4-dihydro-2H-benzo[1,4]oxazin-7-ylmethyl)-amino]-ethyl}-carbamoyl)-2-phenyl-ethyl]-N-(4-morpholin-4-yl-benzyl)-3-(4-trifluoromethyl-phenyl)-acrylamide]
39	COc1ccc(CN(C)CCN(C)C(=O)[C@H](Cc2ccccc2)N(Cc2ccc(N3CCOCC3)cc2)C(=O)C=Cc2ccc(C(F)(F)F)cc2)cn1 [Example 264, (S)-N-[1-({2-[(6-Methoxy-pyridin-3-ylmethyl)-methyl-amino]-ethyl}-methyl-carbamoyl)-2-phenyl-ethyl]-N-(4-morpholin-4-yl-benzyl)-3-(4-trifluoromethyl-phenyl)-acrylamide]
36	CN(CCN(C)C(=O)[C@H](Cc1ccccc1)N(Cc1ccc(N2CCOCC2)cc1)C(=O)C=Cc1ccc(C(F)(F)F)cc1)Cc1nccs1 [Example 265, (S)-N-(1-{Methyl-[2-(methyl-thiazol-2-ylmethyl-amino)-ethyl]-carbamoyl}-2-phenyl-ethyl)-N-(4-morpholin-4-yl-benzyl)-3-(4-trifluoromethyl-phenyl)-acrylamide]
58	CN(CCN(C)C(=O)[C@H](Cc1ccccc1)N(Cc1ccc(N2CCOCC2)cc1)C(=O)C=Cc1ccc(C(F)(F)F)cc1)Cc1ccc2c(c1)OCO2 [Example 266, (S)-N-(1-{[2-(Benzo[1,3]dioxol-5-ylmethyl-methyl-amino)-ethyl]-methyl-carbamoyl}-2-phenyl-ethyl)-N-(4-morpholin-4-yl-benzyl)-3-(4-trifluoromethyl-phenyl)-acrylamide]
40	CN(CCN(C)C(=O)[C@H](Cc1ccccc1)N(Cc1ccc(N2CCOCC2)cc1)C(=O)C=Cc1ccc(C(F)(F)F)cc1)Cc1cncnc1 [Example 267, (S)-N-(1-{Methyl-[2-(methyl-pyrimidin-5-ylmethyl-amino)-ethyl]-carbamoyl}-2-phenyl-ethyl)-N-(4-morpholin-4-yl-benzyl)-3-(4-trifluoromethyl-phenyl)-acrylamide]
80	Cc1ccc(CN(C)CCN(C)C(=O)[C@H](Cc2ccccc2)N(Cc2ccc(N3CCOCC3)cc2)C(=O)C=Cc2ccc(C(F)(F)F)cc2)c(F)c1F [Example 268, (S)-N-[1-({2-[(2,3-Difluoro-4-methyl-benzyl)-methyl-amino]-ethyl}-methyl-carbamoyl)-2-phenyl-ethyl]-N-(4-morpholin-4-yl-benzyl)-3-(4-trifluoromethyl-phenyl)-acrylamide]
63	CN(CCN(C)C(=O)[C@H](Cc1ccccc1)N(Cc1ccc(N2CCOCC2)cc1)C(=O)C=Cc1ccc(C(F)(F)F)cc1)Cc1cnc[nH]1 [Example 269, (S)-N-[1-({2-[(3H-Imidazol-4-ylmethyl)-methyl-amino]-ethyl}-methyl-carbamoyl)-2-phenyl-ethyl]-N-(4-morpholin-4-yl-benzyl)-3-(4-trifluoromethyl-phenyl)-acrylamide]
25	CN(CCN(C)C(=O)[C@H](Cc1ccccc1)N(Cc1ccc(N2CCOCC2)cc1)C(=O)C=Cc1ccc(C(F)(F)F)cc1)Cc1ccncc1 [Example 270, (S)-N-(1-{Methyl-[2-(methyl-pyridin-4-ylmethyl-amino)-ethyl]-carbamoyl}-2-phenyl-ethyl)-N-(4-morpholin-4-yl-benzyl)-3-(4-trifluoromethyl-phenyl)-acrylamide]
100	CC(=O)Nc1ccc(CN(C)C(=O)[C@H](Cc2ccccc2)N(Cc2ccc(N3CCOCC3)cc2)C(=O)C=Cc2ccc(C(F)(F)F)nc2)cc1 [Example 271]
80	CN(Cc1ccc(N2CCCC2=O)cc1)C(=O)[C@H](Cc1ccccc1)N(Cc1ccc(N2CCOCC2)cc1)C(=O)C=Cc1ccc(C(F)(F)F)nc1 [Example 272]
